Laboratory results published in patent publication US20130178453A1, “Cannabinoid Agonists” (priority 2010, published 2013).
Read-outs that look alike come from different tables or passages of the source.

Assays:
hCB2 [1] = target: T1, hCB2 (Homo sapiens, UniProt P34972); test: hCB2 radioligand binding assay ([3H]-CP 55,940 displacement); settings: HEK membranes
Experimental: (§1) cDNA expression clones for human CB 1 (hCB1, Genbank Accession No. AY225225) and human CB2 (hCB2, Genbank Accession No. AY242132) expressed in vector pcDNA3.1+ were purchased from UMR cDNA Resource Center, Rolla, Mo. (Clone ID CNR01L000 for hCB1; CNR0200000 for hCB2).
(§2) Membranes were isolated from transfected cells as follows. Monolayers of cultured cells were washed twice with phosphate-buffered saline (PBS). […] Homogenates were centrifuged 10 minutes at 1000×g at 4° C. The supernatant was collected and was centrifuged for 1 hour at 40,000×g. The supernatant was then decanted and the resulting pellet was re-suspended in 20 mM HEPES, pH 7.4, 5 mM MgCl2, 1 mM EDTA, 10% sucrose with complete cocktail protease inhibitors. Protein concentration of membrane suspensions were measured by Bradford Protein Assay using bovine serum albumin as the standard (BioRad catalog #500-0006). Protein concentrations of membrane suspensions were adjusted with the final buffer in the range of 5 to 10 mg/mL and were stored at −80° C. until further use.
A rapid filtration technique using Millipore FB filter plates (Catalog #MADVNOB) and filtration apparatus (Millipore system Catalog MAVM0960R) with vacuum aspiration was used to harvest and rinse labeled membranes (8 times with 0.2 mL of chilled binding buffer). […] Binding data were analyzed using GraphPad Prism (GraphPad Software, Inc. San Diego, Calif.).

hCB1 = hCB1 (Homo sapiens, UniProt P21554); test: hCB1 radioligand binding assay ([3H]-CP 55,940 displacement); settings: HEK membranes
Description: as §1
Stable, HEK-293-derived cell lines that recombinantly express hCB1 or hCB2 were established. In brief, the clone hCB1 (CNR1L) or hCB2 (CNR2) was transfected into human embryonic kidney cells (HEK-293) using Lipofectamine 2000 (Gibco, Cat#11668-019) according to the manufacturer's protocol. Transfected clones were isolated by single colony purification and clones were screened for receptor expression using a whole cell, ^3H—CP 55,940 radioligand binding assay. HEK-293 stable cells were maintained in Dulbecco's modified Eagles medium (DMEM) containing 10% fetal bovine serum, 2 mM L-glutamine and 0.5 mg/mL G-418.
Membranes were isolated from transfected cells as follows. Monolayers of cultured cells were washed twice with phosphate-buffered saline (PBS). Cells were scraped into 20 mM HEPES, pH 7.4, 10 mM EDTA containing complete cocktail protease inhibitors (Roche, Catalog #11 697 498 001), and were homogenized by an electric-powered mechanical probe homogenizer (Omni GLH; probe G7-195S) for 40 seconds at 7000 rpm. Homogenates were centrifuged 10 minutes at 1000×g at 4° C. The supernatant was collected and was centrifuged for 1 hour at 40,000×g. The supernatant was then decanted and the resulting pellet was re-suspended in 20 mM HEPES, pH 7.4, 5 mM MgCl2, 1 mM EDTA, 10% sucrose with complete cocktail protease inhibitors. Protein concentration of membrane suspensions were measured by Bradford Protein Assay using bovine serum albumin as the standard (BioRad catalog #500-0006). Protein concentrations of membrane suspensions were adjusted with the final buffer in the range of 5 to 10 mg/mL and were stored at −80° C. until further use.
Radioligand binding assays were performed by incubating membranes (2-10 μg protein) prepared from HEK-293 cells expressing recombinant human cannabinoid receptors, CB 1 or CB2, at room temperature with 0.5 nM cannabinoid receptor agonist, [^3H]-CP 55,940 (Perkin Elmer, catalog #NET 1051) in 0.2 mL of binding buffer (50 mM Tris-HCl, pH 7.5, 5 mM MgCl2, 2.5 mM EDTA) and 0.1% fatty acid free bovine serum albumin (Sigma Cat. #A0821) for 90 minutes. A rapid filtration technique using Millipore FB filter plates (Catalog #MADVNOB) and filtration apparatus (Millipore system Catalog MAVM0960R) with vacuum aspiration was used to harvest and rinse labeled membranes (8 times with 0.2 mL of chilled binding buffer). The radioactivity bound to the filters was counted with 0.05 mL of liquid scintillant (UltraGold MV, PerkinElmer catalog #6013159) in a scintillation counter (Perkin Elmer Microbeta instrument). Nonspecific binding was determined in the presence of unlabeled 1 μM CP 55,940 (Sigma Aldrich, catalog #C1112). Binding data were analyzed using GraphPad Prism (GraphPad Software, Inc. San Diego, Calif.).

hCB2 [2] = target: T1, hCB2; test: hCB2 cAMP agonist assay (HEK-293 cells); format: cell-based
Experimental: as §1
cAMP assays were performed in HEK-293 cells stably expressing human CB 1 or CB2 receptors. […] Cells suspensions were centrifuged and the cells were washed once with PBS, were centrifuged again, and the cells were resuspended in HBSS (Hank's Balanced Salt Solution, Cellgro, Cat #21-022-CV) solution containing 10 mM HEPES and 0.1% fatty acid free BSA (Sigma, Cat #A0281). Cell suspensions were prepared at 1,500,000 cells per mL. Stock solutions of test substances (10 mM) in DMSO were diluted to 1 mM using 30% DMSO as diluent. Test substances of solutions (1 mM) were further diluted down to 3× of final assay concentrations in the above HBSS buffer containing 0.1% BSA in the presence of 90 uM forskolin (Sigma Cat#F6886). To perform the assay, 20 μL of cell suspension (1,500,000 cells/mL) were added to each well in 96 well plate and treated with 10 μL test substance solution diluted as described above. Cells and compounds were incubated at 37° C. for 30 minutes. Cells were lysed and cAMP concentration was measured using DiscoveRx-XS+ cAMP assay kit (DiscoveRx Corporation Ltd., Fremont, Calif., USA, Cat #90-0075-03), following the manufacturer's protocol. GraphPad Prism software was used to calculate EC50 values using sigmoidal dose response curve fitting. The maximal amount of cAMP produced by forskolin was defined as 100%.

hCB2 [3] = target: T1, hCB2; test: hCB2 GTPγS agonist assay (HEK-293 membranes); format: biochemical
Experimental: as §1, §2
^35S GTPγS binding assays were performed by incubating recombinant cell membranes prepared above (5 μg) in the presence of scintillation proximity assay beads (SPA beads, Catalog #RPNQ0252 GE Healthcare, Buckinghamshire, England) in GTPγS binding buffer [50 mM HEPES (pH 7.4), 100 mM NaCl, 5 mM MgCl2, 0.001% saponin (Sigma catalog #S4521)] supplemented with 20 uM GDP (Sigma catalog #G7127) in the presence or absence of test compound. The reaction was carried out in 96-well microplates with 0.1 nM [^35S]GTPγS (specific activity=1250 Ci/mmol; Perkin Elmer catalog #NEG030X250UC) in a final volume of 100 μL. After a 90 min room temperature incubation, the reaction was analyzed using a scintillation counter (Perkin Elmer Microbeta instrument). Binding data were analyzed using GraphPad Prism.

[4] = GTPγS agonist, HEK membranes, read-out: hCB2 EC50 (GTPyS ag, nM, HEK)
[5] = cAMP agonist, HEK, 96-well, read-out: hCB2 EC50 (cAMP ag, nM, HEK (96-well))

hCB1, sequence (P21554 whole entry): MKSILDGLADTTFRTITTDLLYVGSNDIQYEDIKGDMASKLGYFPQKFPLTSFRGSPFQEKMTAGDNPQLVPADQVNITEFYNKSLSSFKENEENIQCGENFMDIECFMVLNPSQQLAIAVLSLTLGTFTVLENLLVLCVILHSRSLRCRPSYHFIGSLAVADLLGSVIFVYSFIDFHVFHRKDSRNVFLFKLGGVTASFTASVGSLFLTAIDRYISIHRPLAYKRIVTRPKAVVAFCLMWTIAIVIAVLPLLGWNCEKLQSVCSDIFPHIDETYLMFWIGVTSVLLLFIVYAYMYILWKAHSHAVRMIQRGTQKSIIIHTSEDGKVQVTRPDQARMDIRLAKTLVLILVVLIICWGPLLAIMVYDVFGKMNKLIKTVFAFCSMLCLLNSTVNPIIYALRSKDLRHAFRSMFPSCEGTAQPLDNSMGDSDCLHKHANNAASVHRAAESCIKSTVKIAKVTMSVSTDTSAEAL
T1 sequence (P34972 whole entry): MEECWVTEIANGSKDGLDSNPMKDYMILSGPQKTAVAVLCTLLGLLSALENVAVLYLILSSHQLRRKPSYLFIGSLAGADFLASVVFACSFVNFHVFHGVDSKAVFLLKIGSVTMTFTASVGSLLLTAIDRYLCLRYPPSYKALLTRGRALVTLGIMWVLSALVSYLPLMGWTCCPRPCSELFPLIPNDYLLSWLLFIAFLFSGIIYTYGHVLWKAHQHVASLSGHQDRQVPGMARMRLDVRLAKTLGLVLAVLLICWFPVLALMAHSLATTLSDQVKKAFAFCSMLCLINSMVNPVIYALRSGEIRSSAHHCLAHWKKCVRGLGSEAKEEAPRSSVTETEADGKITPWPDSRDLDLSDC

| Structure (SMILES) | IC50 (hCB2 [1]; hCB2 IC50 (CP displ, nM, HEK)) [nM] | IC50 (hCB1; hCB1 IC50 (CP displ, nM, HEK)) [nM] | EC50 (hCB2 [2]) [nM] | EC50 (hCB2 [3]) [nM] | EC50 (hCB2 [3]; [4]) [nM] | EC50 (hCB2 [2]; [5]) [nM] | hCB1 IC50 (CP displ, nM, HEK) (hCB1) | IC50 (hCB2 [1]; read-out: hCB2 IC50 (CP displ, nM, HEK)) [nM] | IC50 (hCB1; read-out: hCB1 IC50 (CP displ, nM, HEK)) [nM] |
| --- | --- | --- | --- | --- | --- | --- | --- | --- | --- |
| CCCn1c(C)c(C(=O)c2cc3ccsc3s2)c2ccccc21 [Compound I-46] | 100 to 1000 | 1000 to 10000 | 100 to 1000 | 100 to 1000 |  |  |  |  |  |
| Cc1[nH]c2ccsc2c1C(=O)c1cccc2ccccc12 [Compound I-4] | 1000 to 10000 | > 10000 |  |  | 1000 to 10000 |  |  |  |  |
| CCCn1c(C)c(C(=O)c2cc3cc(Cl)sc3[nH]2)c2ccccc21 [Compound I-48] | 100 to 1000 | 1000 to 10000 | 100 to 1000 | 100 to 1000 |  |  |  |  |  |
| CCCn1c(C)c(C(=O)c2cc3occc3[nH]2)c2ccccc21 [Compound I-71] | 1000 to 10000 | > 10000 |  |  |  |  |  |  |  |
| CCCn1c(C)c(C(=O)c2cccc3ccccc23)c2sccc21 [Compound I-12] | 100 to 1000 | 1000 to 10000 |  | < 100 |  |  |  |  |  |
| CCCn1c(C)c(C(=O)c2cc3ccsc3n2CC)c2c1CCCCC2 [Compound I-87] | < 100 | 1000 to 10000 |  |  | < 100 | < 100 |  |  |  |
| C=Cn1c(C)c(C(=O)c2cc3ccsc3n2CC)c2ccccc21 [Compound I-24] | 100 to 1000 |  |  |  | 100 to 1000 | < 100 | B/C |  |  |
| CCCn1c(C)c(C(=O)c2cc3ccsc3n2CC)c2c1CCC(C)(C)C2 [Compound I-65] | < 100 | 1000 to 10000 |  |  | < 100 | < 100 |  |  |  |
| CCCn1c(C(=O)c2c(C)n(CCN3CCCCC3)c3ccccc23)cc2ccsc21 [Compound I-59] | < 100 | 100 to 1000 | < 100 | 100 to 1000 |  |  |  |  |  |
| CCCn1c(C)c(C(=O)c2cc3sccc3s2)c2ccccc21 [Compound I-20] | 1000 to 10000 | 1000 to 10000 | 100 to 1000 | 100 to 1000 |  |  |  |  |  |
| Cc1c(C(=O)c2cccc3ccccc23)c2ccsc2n1CCN1CCOCC1 [Compound I-5] | < 100 | 100 to 1000 |  | < 100 |  |  |  |  |  |
| Cc1c(C(=O)c2cccc3ccccc23)c2sccc2n1CCN1CCOCC1 [Compound I-1] | < 100 | 100 to 1000 |  | < 100 |  |  |  |  |  |
| Cc1c(C(=O)c2cc3ccsc3[nH]2)c2ccccc2n1CCN1CCOCC1 [Compound I-82] | 100 to 1000 | 1000 to 10000 | 100 to 1000 | 100 to 1000 |  |  |  |  |  |
| CCCn1c(C)c(C(=O)c2cc3ccsc3n2CC)c2ccccc21 [Compound I-54] | < 100 | 1000 to 10000 | < 100 | < 100 |  |  |  |  |  |
| CCCn1c(C)c(C(=O)c2cc3ccsc3n2CCC)c2cc(Cl)ccc21 [Compound I-52] | 100 to 1000 | 1000 to 10000 | 100 to 1000 | 100 to 1000 |  |  |  |  |  |
| CCCn1c(C)c(C(=O)c2cc3cc(C)n(CCC)c3s2)c2ccccc21 [Compound I-63] | 100 to 1000 |  |  |  |  |  |  |  |  |
| Cc1c(C(=O)c2cc3ccccc3[nH]2)c2ccsc2n1CCN1CCOCC1 [Compound I-10] | 100 to 1000 | 1000 to 10000 |  |  |  |  |  |  |  |
| CCCn1c(C)c(C(=O)c2cc3ccsc3n2CCC)c2c1CCC(C)(C)C2 [Compound I-35] | < 100 | 100 to 1000 |  |  | < 100 | < 100 |  |  |  |
| CCCn1c(C(=O)c2c[nH]c3ccccc23)cc2ccsc21 [Compound I-64] | 100 to 1000 | > 10000 |  |  | 100 to 1000 | 100 to 1000 |  |  |  |
| CCCn1c(C)c(C(=O)c2c(C)n(CCC)c3sccc23)c2ccccc21 [Compound I-7] | 100 to 1000 | 1000 to 10000 |  |  |  |  |  |  |  |
| CCn1c(C(=O)c2c(C)n(CCC(=O)O)c3ccccc23)cc2ccsc21 [Compound I-27, 3-(3-(6-ethyl-6H-thieno[2,3-b]pyrrole-5-carbonyl)-2-methyl-1H-indol-1-yl)propanoic acid] | 100 to 1000 | > 10000 |  |  |  | 100 to 1000 |  |  |  |
| CCCn1c(C(=O)c2c(C)n(CC)c3ccccc23)cc2ccsc21 [Compound I-50] | < 100 | 1000 to 10000 | < 100 | < 100 |  |  |  |  |  |
| CCCn1c(C)c(C(=O)c2cc3ccsc3n2C)c2ccccc21 [Compound I-55] | 100 to 1000 | > 10000 | < 100 | 100 to 1000 |  |  |  |  |  |
| CCCn1c(C(=O)c2c(C)[nH]c3sccc23)cc2ccccc21 [Compound I-13] |  |  |  |  |  |  |  | > 10000 | > 10000 |
| Cc1[nH]c2sccc2c1C(=O)c1cccc2ccccc12 [Compound I-3] | 1000 to 10000 | > 10000 |  | < 100 |  |  |  |  |  |
| CCCn1c(C)c(C(=O)c2cc3ccsc3n2CCC)c2cc(OC)ccc21 [Compound I-61] | < 100 | 100 to 1000 | 100 to 1000 |  |  |  |  |  |  |
| CCCn1c(C)c(C(=O)c2cccc3ccccc23)c2ccsc21 [Compound I-2] | 100 to 1000 | 1000 to 10000 |  | 100 to 1000 |  |  |  |  |  |
| CCCn1c(C)c(C(=O)c2cc3cc(C)[nH]c3s2)c2ccccc21 [Compound I-75] | 1000 to 10000 | > 10000 |  |  |  |  |  |  |  |
| CCCn1c(C(=O)c2c3c(n(CCN4CCOCC4)c2C)CCCC3)cc2ccsc21 [Compound I-79] | < 100 | 100 to 1000 |  |  | < 100 | < 100 |  |  |  |
| CCCn1c(C(=O)c2c[nH]c3ncccc23)cc2ccsc21 [Compound I-43] | 1000 to 10000 | > 10000 |  |  | 100 to 1000 |  |  |  |  |
